Consider 18 molecules from patent US9296759B2, “Amino-oxazine and amino-dihydrothiazine compounds as beta-secretase modulators and methods of use” (AMGEN INC., priority 2011, dated 2016).

The structures appear in SMILES notation. A value given as a limit tells only on which side of the number the result lay.

Test [1] relates to Aβ40 in conditioned medium of cells stably expressing Amyloid Precursor Protein (APP). Put plainly: In vitro BACE cell-based assay (HEK cell assay, Aβ40 sandwich ELISA). To be noted: average IC50, Aβ40, 24 h incubation. As to the method:
In Vitro BACE Cell-Based Assay
The cell-based assay measures inhibition or reduction of Aβ40 in conditioned medium of test compound treated cells expressing amyloid precursor protein.
Cells stably expressing Amyloid Precursor Protein (APP) were plated at a density of 40K cells/well in 96 well plates (Costar). The cells were cultivated for 24 hours at 37° C. and 5% CO2 in DMEM supplemented with 10% FBS. The test compounds were then added to cells in 10-point dose response concentrations with the starting concentration being either 100 μM or 10 μM. The compounds were diluted from stock solutions in DMSO and the final DMSO concentration of the test compounds on cells was 0.1%. After 24 h of incubation with the test compounds the supernatant conditioned media was collected and the Aβ 40 levels were determined using a sandwich ELISA. The IC50 of the compound was calculated from the percent of control or percent inhibition of Aβ 40 as a function of the concentration of the test compound.
The sandwich ELISA to detect Aβ 40 was performed in 96 well microtiter plates, which were pre-treated with goat anti-rabbit IgG (Pierce). The capture and detecting antibody pair that were used to detect Aβ 40 from cell supernatants were affinity purified pAb40 (Biosource) and biotinylated 6E10 (Signet Labs Inc.), respectively. The optimal concentration for the pAb40 antibody was 3 μg/ml in Superblock/TBS (Pierce) that was supplemented with 0.05% Tween 20 (Sigma).
Cellular supernatants were incubated with the capture antibody for 3 h at 4° C., followed by 3 wash steps in TBS-tween (0.05%). The detecting antibody incubation was for 2 h at 4° C., again followed by the wash steps as described previously. The final readout of the ELISA is Time-Resolved Fluorescence (counts per minute) using Delfia reagents Streptavidin-Europium and Enhancement solutions (Perkin Elmer) and the Victor 2 multilabel counter (Perkin Elmer).
On the technique in general: An ELISA detects its analyte on a solid surface through an enzyme-linked reagent.

Test [2] addresses BACE 1 (beta secretase enzyme) (Homo sapiens (Human), UniProt P56817). Put plainly: In vitro enzymatic BACE FRET assay. It counts as biochemical. Particulars: average IC50. The procedure:
In Vitro Enzymatic BACE FRET (Fluorescence Resonance Energy Transfer) Assay
The assay buffer used in this screen is 0.05 M acetate, pH 4.2, 10% DMSO final, 100 uM genapol (which is a nonionic detergent, below its Critical Micelle Concentration). […] This assay is effectively started by the addition of FRET substrate (50 nM) and the combination is incubated for one hour. The FRET assay is terminated with by addition of Tris buffer, which raises the pH to neutrality, and the fluorescence is determined. The FRET substrate is a peptide with commercially available fluorophore and quencher, on opposite sides of the BACE cleavage site. Proteolytic cleavage of the FRET substrate releases quenching of fluorescence (excitation […] and […]).

The target in a further test is Cathepsin D (Homo sapiens (Human), UniProt P07339). Put plainly: In vitro enzymatic Cat D (Cathepsin D) FRET assay. Particulars: average IC50. It counts as biochemical. The procedure: In Vitro Enzymatic Cat D (Cathepsin D) FRET (Fluorescence Resonance Energy Transfer) Assay
Recombinant CathepsinD was expressed in CHO cells. The assay buffer for CathepsinD is 0.05 M citrate pH 3.5, 10% DMSO final, 5 mM CHAPS. […] The assays are effectively started by the addition of different FRET substrates (20 nM for CathepsinD) and the combination is incubated for one hour. The FRET assay is terminated with by addition of Tris buffer, which raises the pH to neutrality, and the fluorescence is determined. The FRET substrate is a peptide with commercially available fluorophore and quencher, on opposite sides of the BACE cleavage site. […] Proteolytic cleavage of the FRET substrate releases quenching of fluorescence (CathepsinD excitation 500 nm and emission 580 nm).

Sequence of BACE 1 (beta secretase enzyme) (P56817 46-501): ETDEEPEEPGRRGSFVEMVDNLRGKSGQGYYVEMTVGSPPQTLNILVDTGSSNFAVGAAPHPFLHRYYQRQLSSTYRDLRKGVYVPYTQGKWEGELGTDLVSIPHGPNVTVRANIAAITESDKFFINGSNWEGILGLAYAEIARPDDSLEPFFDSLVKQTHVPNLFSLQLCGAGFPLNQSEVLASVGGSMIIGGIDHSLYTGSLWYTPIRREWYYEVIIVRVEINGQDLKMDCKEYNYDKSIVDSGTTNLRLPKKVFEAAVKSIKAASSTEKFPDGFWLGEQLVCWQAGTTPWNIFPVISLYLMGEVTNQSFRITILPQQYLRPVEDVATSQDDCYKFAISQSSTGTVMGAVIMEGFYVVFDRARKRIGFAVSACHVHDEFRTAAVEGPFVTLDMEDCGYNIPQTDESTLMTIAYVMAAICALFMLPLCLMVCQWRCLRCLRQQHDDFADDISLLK
Sequence of Cathepsin D (P07339 65-412, species assumed): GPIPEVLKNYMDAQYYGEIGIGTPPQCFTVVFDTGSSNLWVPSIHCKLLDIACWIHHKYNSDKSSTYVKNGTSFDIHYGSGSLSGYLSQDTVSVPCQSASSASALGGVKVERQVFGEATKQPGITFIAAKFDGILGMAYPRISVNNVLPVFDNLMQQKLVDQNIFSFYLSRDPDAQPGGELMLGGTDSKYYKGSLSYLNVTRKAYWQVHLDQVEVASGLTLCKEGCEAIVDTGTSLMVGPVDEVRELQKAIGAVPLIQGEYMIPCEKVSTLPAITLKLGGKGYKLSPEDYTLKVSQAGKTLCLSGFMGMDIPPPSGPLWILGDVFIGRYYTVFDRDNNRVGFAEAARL

A word on the IC50: it is the concentration that gives 50% inhibition. For `CCOc1cccnc1Nc1ccc2c(c1)[C@@]1(CCOC(N)=N1)c1cc(OC)cc(F)c1O2` [Example 31, (4S)-N~2~′-(3-ethoxy-2-pyridinyl)-5′-fluoro-7′-methoxy-5,6-dihydrospiro[1,3-oxazine-4,9′-xanthene]-2,2′-diamine], the IC50 in test [1] was found to be 64.2 nM; in test [2], 69.6 nM; at Cathepsin D it was 400000 nM.

For `CCOc1cccnc1Nc1ccc2c(c1)[C@@]1(CCSC(N)=N1)c1cc(OC)cc(F)c1O2` [Example 33, (4S)-N~2~′-(3-ethoxy-2-pyridinyl)-5′-fluoro-7′-methoxy-5,6-dihydrospiro[1,3-thiazine-4,9′-xanthene]-2,2′-diamine], the values for the IC50 (in test [1]; in test [2]; at Cathepsin D) were 65.9 nM, 48.6 nM and 262000 nM, respectively.

With `NC1=N[C@@]2(CCO1)c1cc(NC(=O)c3ccc(Cl)cn3)ccc1Oc1ncc(C3=CCCOC3)cc12` [Example 35, N-((5S)-2′-amino-3-(5,6-dihydro-2H-pyran-3-yl)-5′,6′-dihydrospiro[chromeno[2,3-b]pyridine-5,4′-[1,3]oxazin]-7-yl)-5-chloro-2-pyridinecarboxamide], the IC50 is 3.3 nM in test [1] (Homo sapiens, HEK293); 5.1 nM in test [2]; greater than 1650 nM at Cathepsin D.

`NC1=N[C@@]2(CCO1)c1cc(NC(=O)c3ccc(Cl)cn3)ccc1Oc1ncccc12` [Example 36, N-((5S)-2′-amino-5′,6′-dihydrospiro[chromeno[2,3-b]pyridine-5,4′-[1,3]oxazin]-7-yl)-5-chloro-2-pyridinecarboxamide]: the IC50 in test [1] (Homo sapiens, HEK293) was 14.8 nM; in test [2] it was 45.1 nM; on Cathepsin D, greater than 400000 nM.

Turning to `NC1=N[C@@]2(CCO1)c1cc(NC(=O)c3ccc(Cl)cc3F)ccc1Oc1ncc(Br)cc12` [Example 37, N-((5S)-2′-amino-3-bromo-5′,6′-dihydrospiro[chromeno[2,3-b]pyridine-5,4′-[1,3]oxazin]-7-yl)-4-chloro-2-fluorobenzamide], the IC50 was 125 nM in test [1] (Homo sapiens, HEK293); 120 nM in test [2]; greater than 400000 nM on Cathepsin D.

With `NC1=N[C@@]2(CCO1)c1cc(NC(=O)c3cnc(O)cn3)ccc1Oc1ncc(Br)cc12` [Example 43, N-((5S)-2′-amino-3-bromo-5′,6′-dihydrospiro[chromeno[2,3-b]pyridine-5,4′-[1,3]oxazin]-7-yl)-5-hydroxy-2-pyrazinecarboxamide], the concentration for half-maximal inhibition (IC50) is 1660 nM in test [1] (Homo sapiens, HEK293); 113 nM in test [2]; greater than 4940 nM on Cathepsin D.

Consider `COc1cnc(C(=O)Nc2ccc3c(c2)[C@@]2(CCOC(N)=N2)c2cc(Br)cnc2O3)cn1` [Example 44, N-((5S)-2′-amino-3-bromo-5′,6′-dihydrospiro[chromeno[2,3-b]pyridine-5,4′-[1,3]oxazin]-7-yl)-5-methoxy-2-pyrazinecarboxamide], for which the IC50 in test [1] (Homo sapiens, HEK293) is 11 nM; in test [2] it was 47.6 nM; on Cathepsin D, greater than 1650 nM.

In the case of `N#Cc1ccc(C(=O)Nc2ccc3c(c2)[C@@]2(CCOC(N)=N2)c2cc(Cl)nc(F)c2O3)nc1` [Example 46, N-((5S)-2′-amino-3-chloro-1-fluoro-5′,6′-dihydrospiro[chromeno[2,3-c]pyridine-5,4′-[1,3]oxazin]-7-yl)-5-cyano-2-pyridinecarboxamide], the IC50 was 23 nM in test [1] (Homo sapiens, HEK293); 7 nM in test [2]; greater than 400000 nM at Cathepsin D.

As to `NC1=N[C@@]2(CCO1)c1cc(NC(=O)c3cnc(Cl)cn3)ccc1Oc1c2cc(Cl)nc1F` [Example 49, N-((5S)-2′-amino-3-chloro-1-fluoro-5′,6′-dihydrospiro[chromeno[2,3-c]pyridine-5,4′-[1,3]oxazin]-7-yl)-5-chloro-2-pyrazinecarboxamide], the IC50 was 184 nM in test [1] (Homo sapiens, HEK293); 16.1 nM in test [2]; 323000 nM at Cathepsin D.

On to `COc1cc(F)c2c(c1)[C@]1(CCSC(N)=N1)c1cc(NC(=O)c3cnc(OC)cn3)ccc1O2` [Example 50, N-((4S)-2-amino-5′-fluoro-7′-methoxy-5,6-dihydrospiro[1,3-thiazine-4,9′-xanthen]-2′-yl)-5-methoxy-2-pyrazinecarboxamide], for which the IC50 in test [1] (Homo sapiens, HEK293) was 46.5 nM; in test [2] it was 40.5 nM; at Cathepsin D it was greater than 400000 nM.

Turning to `N#Cc1ccc(C(=O)Nc2ccc3c(c2)[C@@]2(CCOC(N)=N2)c2cc(C4=CCCOC4)nc(F)c2O3)nc1` [Example 52, N-((5S)-2′-amino-3-(5,6-dihydro-2H-pyran-3-yl)-1-fluoro-5′,6′-dihydrospiro[chromeno[2,3-c]pyridine-5,4′-[1,3]oxazin]-7-yl)-5-cyano-2-pyridinecarboxamide], the IC50 came to 0.5 nM in test [1] (Homo sapiens, HEK293); 2 nM in test [2]; 132000 nM on Cathepsin D.

Turning to `COc1nc(C2CC2)cc2c1Oc1ccc(NC(=O)c3ccc(Cl)cn3)cc1[C@@]21CCOC(N)=N1` [Example 53, N-((5S)-2′-amino-3-cyclopropyl-1-methoxy-5′,6′-dihydrospiro[chromeno[2,3-c]pyridine-5,4′-[1,3]oxazin]-7-yl)-5-chloro-2-pyridinecarboxamide], the IC50 in test [1] (Homo sapiens, HEK293) is 22.7 nM; in test [2], 12.9 nM; on Cathepsin D, greater than 400000 nM.

With `COc1cnc(C(=O)Nc2ccc3c(c2)[C@]2(CCSC(N)=N2)c2cc(Cl)nc(F)c2O3)cn1` [Example 55, N-((5R)-2′-amino-3-chloro-1-fluoro-5′,6′-dihydrospiro[chromeno[2,3-c]pyridine-5,4′-[1,3]thiazin]-7-yl)-5-methoxy-2-pyrazinecarboxamide], the IC50 came to 3090 nM in test [1] (Homo sapiens, HEK293); 913 nM in test [2]; 69900 nM on Cathepsin D.

Take `COc1cnc(C(=O)Nc2ccc3c(c2)[C@@]2(CCSC(N)=N2)c2cc(Cl)nc(F)c2O3)cn1` [Example 56, N-((5S)-2′-amino-3-chloro-1-fluoro-5′,6′-dihydrospiro[chromeno[2,3-c]pyridine-5,4′-[1,3]thiazin]-7-yl)-5-methoxy-2-pyrazinecarboxamide]: the IC50 in test [1] (Homo sapiens, HEK293) is 167 nM; in test [2], 6.2 nM; at Cathepsin D it was greater than 400000 nM.

On to `COc1cc(F)c2c(c1)[C@]1(CCOC(N)=N1)c1cc(Nc3ncccc3OCc3ccccc3)ccc1O2` [Example 57, (4S)-N~2~′-(3-(benzyloxy)-2-pyridinyl)-5′-fluoro-7′-methoxy-5,6-dihydrospiro[1,3-oxazine-4,9′-xanthene]-2,2′-diamine], for which the IC50 in test [1] came out at 3510 nM; in test [2], 7290 nM; at Cathepsin D it was 400000 nM.

Turning to `COc1cnc(C(=O)Nc2ccc3c(c2)[C@@]2(CCSC(N)=N2)c2cc(C4=CCOCC4)cc(F)c2O3)cn1` [Example 60, N-((4S)-2-amino-7′-(3,6-dihydro-2H-pyran-4-yl)-5′-fluoro-5,6-dihydrospiro[1,3-thiazine-4,9′-xanthen]-2′-yl)-5-methoxy-2-pyrazinecarboxamide], the IC50 in test [1] (Homo sapiens, HEK293) is 4.3 nM; in test [2] it was 6.2 nM; at Cathepsin D, 174000 nM.

`COc1nc(C2=CCOCC2)cc2c1Oc1ccc(NC(=O)c3ccc(Cl)cn3)cc1[C@@]21CCOC(N)=N1` [Example 62, N-((5S)-2′-amino-3-(3,6-dihydro-2H-pyran-4-yl)-1-methoxy-5′,6′-dihydrospiro[chromeno[2,3-c]pyridine-5,4′-[1,3]oxazin]-7-yl)-5-chloro-2-pyridinecarboxamide]: the half-inhibitory concentration (IC50) came out at 3.6 nM in test [1] (Homo sapiens, HEK293); 7 nM in test [2]; 400000 nM at Cathepsin D.

Consider `N#Cc1ccc(C(=O)Nc2ccc3c(c2)[C@@]2(CCOC(N)=N2)c2cc(-c4cncc(F)c4)nc(F)c2O3)nc1` [Example 69, N-((5S)-2′-amino-1-fluoro-3-(5-fluoro-3-pyridinyl)-5′,6′-dihydrospiro[chromeno[2,3-c]pyridine-5,4′-[1,3]oxazin]-7-yl)-5-cyano-2-pyridinecarboxamide], for which the IC50 in test [1] (Homo sapiens, HEK293) amounted to 0.082 nM; in test [2], 0.6 nM; on Cathepsin D it was 133000 nM.
